Assay results as given in patent publication US20240059753A1, “COMPOSITIONS INCLUDING MULTI-AGONIST PEPTIDES AND METHODS OF MANUFACTURE AND USE” (Pep2Tango Therapeutics Inc., priority 2022, published 2024).
Structures can show the parent of a compound that is named as a salt. Numbered stars: 1 amine (or outer) side, 2 acyl side, 3 side chain; on linkers, the order of the positions; unused ones are H or OH. Bridge positions count the residues as written; N and C are the ends. Square brackets hold non-standard residues; d marks the D form. Side chains are listed from the residue outwards. * marks the point of attachment. C20 diacid = O=C(O)CCCCCCCCCCCCCCCCCCC(=O)*; C18 diacid = O=C(O)CCCCCCCCCCCCCCCCC(=O)*; γGlu = O=C(O)[C@H](CCC(=O)[*:2])N[*:1]; AEEA = NCCOCCOCC(=O)O; Aib = CC(C)(N)C(=O)O

T1: Human CalcitoninR (Homo sapiens, UniProt P30988)
T1 construct: expressed in transfected cells; host or cells: CHO-K1, stably transfected
T1 sequence (P30988 25-474): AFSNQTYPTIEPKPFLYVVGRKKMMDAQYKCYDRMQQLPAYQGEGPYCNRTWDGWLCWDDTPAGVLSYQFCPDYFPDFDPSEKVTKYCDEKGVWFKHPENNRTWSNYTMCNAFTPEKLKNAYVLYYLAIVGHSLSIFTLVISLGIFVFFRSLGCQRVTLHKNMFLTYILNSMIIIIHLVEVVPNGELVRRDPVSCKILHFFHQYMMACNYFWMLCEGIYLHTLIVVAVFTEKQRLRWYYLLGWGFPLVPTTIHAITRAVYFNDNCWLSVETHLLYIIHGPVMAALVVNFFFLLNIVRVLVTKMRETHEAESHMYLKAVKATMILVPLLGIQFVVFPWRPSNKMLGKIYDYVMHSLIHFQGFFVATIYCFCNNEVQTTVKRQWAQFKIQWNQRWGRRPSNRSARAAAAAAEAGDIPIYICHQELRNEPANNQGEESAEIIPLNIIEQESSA

T2: Human Calc/RAMP3R (AMY3) (Homo sapiens, UniProt O60896+P30988)
T2 construct: expressed in transfected cells; host or cells: CHO-K1, stably transfected
T2 sequence (P30988 25-474): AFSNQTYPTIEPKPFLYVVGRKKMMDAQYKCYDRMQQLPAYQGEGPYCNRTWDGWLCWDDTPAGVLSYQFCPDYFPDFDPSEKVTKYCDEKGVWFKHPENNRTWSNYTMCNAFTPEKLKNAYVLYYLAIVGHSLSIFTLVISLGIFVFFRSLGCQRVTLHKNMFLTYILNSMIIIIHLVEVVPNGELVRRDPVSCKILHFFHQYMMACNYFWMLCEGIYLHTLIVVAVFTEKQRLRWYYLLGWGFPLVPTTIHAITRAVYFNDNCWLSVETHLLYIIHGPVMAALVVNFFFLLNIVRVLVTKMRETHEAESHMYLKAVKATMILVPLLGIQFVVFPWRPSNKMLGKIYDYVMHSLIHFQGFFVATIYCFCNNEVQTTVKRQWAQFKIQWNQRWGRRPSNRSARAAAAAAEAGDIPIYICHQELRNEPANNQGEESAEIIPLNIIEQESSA
T2 sequence (O60896 24-148 partner): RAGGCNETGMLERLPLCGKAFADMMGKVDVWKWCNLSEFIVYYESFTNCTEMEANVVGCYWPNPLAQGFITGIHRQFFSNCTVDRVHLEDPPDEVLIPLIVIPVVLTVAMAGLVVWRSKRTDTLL

T3: Human GIPR (Homo sapiens, UniProt P48546)
T3 construct: expressed in transfected cells; host or cells: CHO-K1, stably transfected
T3 sequence (P48546 22-466): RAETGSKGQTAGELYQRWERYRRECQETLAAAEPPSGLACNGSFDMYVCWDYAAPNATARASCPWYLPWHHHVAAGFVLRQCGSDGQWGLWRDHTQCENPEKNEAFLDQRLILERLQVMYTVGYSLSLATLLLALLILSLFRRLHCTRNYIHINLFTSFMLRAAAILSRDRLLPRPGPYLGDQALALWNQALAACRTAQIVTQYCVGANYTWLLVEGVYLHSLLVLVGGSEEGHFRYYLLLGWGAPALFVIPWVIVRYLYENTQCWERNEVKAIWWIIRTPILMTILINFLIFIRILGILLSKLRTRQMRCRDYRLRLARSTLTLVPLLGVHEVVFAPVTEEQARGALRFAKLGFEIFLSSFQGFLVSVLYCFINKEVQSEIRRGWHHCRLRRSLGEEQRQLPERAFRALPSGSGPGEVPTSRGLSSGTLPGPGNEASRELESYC


Columns and labels:
[1] = biological target: T1, Human CalcitoninR; assay: GPCR cell-based cAMP assay, human calcitonin receptor; conditions: stably transfected CHO-Kl cells, 0.1% casein
Description: (§1) Experimental protocol: Cells were seeded in a total volume of 20 μL into white walled, 384-well microplates and incubated at 37° C. overnight prior to testing. Prior to testing cell plating media was exchanged with 10 μL of Assay buffer (HBSS+10 mM HEPES). All compounds were run in assay buffer containing 0.1% casein. Briefly, intermediate dilution of sample stocks was performed to generate 4× sample in assay buffer. 5 μL of 4× sample was added to cells and incubated at 37° C. for 30 minutes. Final assay vehicle concentration was 1%. […] Microplates were read following signal generation with PerkinElmer Envision instrument for chemiluminescent signal detection.
(§2) The results are expressed as a percent efficacy relative to the maximum response of the control ligand.

[2] = biological target: T2, Human Calc/RAMP3R (AMY3); assay: GPCR cell-based cAMP assay, human AMY3 receptor; conditions: stably transfected CHO-Kl cells, 0.1% casein
Description: as §1, §2

[3] = biological target: T3, Human GIPR; assay: GPCR cell-based cAMP assay, human GIP receptor; conditions: stably transfected CHO-Kl cells, 0.1% casein
Description: as §1, §2

[4] = biological target: Human GLP-1R (Homo sapiens, UniProt P43220); assay: GPCR cell-based cAMP assay, human GLP-1 receptor; parameters: expressed in transfected cells; host or cells: CHO-K1, stably transfected; conditions: stably transfected CHO-Kl cells, 0.1% casein
Sequence of Human GLP-1R (P43220 24-463): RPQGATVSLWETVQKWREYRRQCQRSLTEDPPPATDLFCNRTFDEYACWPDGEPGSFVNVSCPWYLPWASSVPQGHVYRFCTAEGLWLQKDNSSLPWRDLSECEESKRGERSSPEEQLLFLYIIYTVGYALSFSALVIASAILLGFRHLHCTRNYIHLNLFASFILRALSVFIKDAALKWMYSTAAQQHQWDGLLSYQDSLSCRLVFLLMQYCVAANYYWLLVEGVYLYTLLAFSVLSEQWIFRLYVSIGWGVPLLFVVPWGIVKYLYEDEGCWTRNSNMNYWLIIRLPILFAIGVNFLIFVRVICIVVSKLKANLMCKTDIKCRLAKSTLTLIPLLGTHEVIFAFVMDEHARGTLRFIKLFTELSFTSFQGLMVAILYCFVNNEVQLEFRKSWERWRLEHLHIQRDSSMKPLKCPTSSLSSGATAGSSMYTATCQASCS
Description: as §1, §2

[5] = tested on: 4 h fasted mice; assay: Blood glucose after single administration of peptides; format: in vivo
Description: Differences were considered statistically significant at p<0.05. Data analysis was carried out with GraphPad software (GraphPad Prism).

Molecule	EC50 [1] [nM]	EC50 [2] [nM]	EC50 [3] [nM]	EC50 [4] [nM]	Blood glucose, 120 min ([5]; 4 h fasted mice, single s.c. 10 nmol/Kg, 120 min after injection, mean ± SEM) [mg/dL]	Blood glucose, 240 min ([5]; 4 h fasted mice, single s.c. 10 nmol/Kg, 240 min after injection, mean ± SEM) [mg/dL]	Blood glucose, Time 0 ([5]; 4 h fasted mice, single s.c. 10 nmol/Kg, Time 0 (baseline), mean ± SEM) [mg/dL]	Significantly reduced blood glucose at 120 min and 240 min compared to time 0 ([5]; single s.c. 10 nmol/kg)
CC[C@H](C)[C@H](NC(=O)[C@H](CC(C)C)NC(=O)[C@H](Cc1c[nH]c2ccccc12)NC(=O)[C@H](CCC(N)=O)NC(=O)[C@@H](NC(=O)[C@H](Cc1ccccc1)NC(=O)[C@H](C)NC(=O)[C@H](CCC(N)=O)NC(=O)[C@H](CCC(N)=O)NC(=O)[C@H](C)NC(=O)[C@@H](NC(=O)[C@H](CCCCN)NC(=O)[C@H](CC(=O)O)NC(=O)[C@H](CC(C)C)NC(=O)C(C)(C)NC(=O)[C@@H](NC(=O)[C@H](CO)NC(=O)[C@H](Cc1ccc(O)cc1)NC(=O)[C@H](CC(=O)O)NC(=O)[C@H](CO)NC(=O)[C@@H](NC(=O)[C@H](Cc1ccccc1)NC(=O)[C@@H](NC(=O)CNC(=O)[C@H](CCC(=O)O)NC(=O)C(C)(C)NC(=O)[C@@H](N)Cc1ccc(O)cc1)[C@@H](C)O)[C@@H](C)O)[C@@H](C)CC)[C@@H](C)CC)C(C)C)C(=O)N[C@@H](C)C(=O)NCC(=O)NCC(=O)N1CCC[C@H]1C(=O)N[C@@H](CO)C(=O)N[C@@H](CCCCNC(=O)COCCOCCNC(=O)COCCOCCNC(=O)CC[C@H](NC(=O)CCCCCCCCCCCCCCCCC(=O)O)C(=O)O)C(=O)N[C@H]1CSSC[C@@H](C(=O)N[C@@H](C)C(=O)N[C@H](C(=O)N[C@@H](CCC(N)=O)C(=O)N[C@@H](CCCNC(=N)N)C(=O)N[C@@H](CC(C)C)C(=O)N[C@@H](C)C(=O)N[C@@H](CCC(=O)O)C(=O)N[C@@H](Cc2ccccc2)C(=O)N[C@@H](CC(C)C)C(=O)N[C@@H](CCCNC(=N)N)C(=O)N[C@@H](Cc2c[nH]cn2)C(=O)N[C@@H](CO)C(=O)N[C@@H](CO)C(=O)N[C@@H](CC(N)=O)C(=O)N[C@@H](CC(N)=O)C(=O)N[C@@H](Cc2ccccc2)C(=O)NCC(=O)N2CCC[C@H]2C(=O)N[C@H](C(=O)N[C@@H](CC(C)C)C(=O)N2CCC[C@H]2C(=O)N2CCC[C@H]2C(=O)N[C@H](C(=O)N[C@@H](CC(N)=O)C(=O)N[C@H](C(=O)NCC(=O)N[C@@H](CO)C(=O)N[C@@H](Cc2c[nH]cn2)C(=O)N[C@H](C(=O)N2CCC[C@H]2C(N)=O)[C@@H](C)O)C(C)C)[C@@H](C)O)[C@@H](C)CC)[C@@H](C)O)NC(=O)[C@H]([C@@H](C)O)NC(=O)[C@H](C)NC(=O)[C@H]([C@@H](C)O)NC(=O)[C@H](CC(N)=O)NC1=O [SEQ ID NO. 55, Y-Aib-E-G-T-F-T-S-D-Y-S-I-Aib-LDKIAQQAFVQWLIAGGPSK*-CNTATCATQRLAEFLRHSSNNFGPILPPTNVGSHTP-NH2-acetate salt (wherein K* = Lys(AEEAc-AEEAc-γ-Glu-17-carboxyheptadecanoyl))]	44.2	46.1	0.019	0.324	–	–	–	–
Cagrilintide [reference compound]	–	–	–	–	189.7 ± 5.52	164.6 ± 6.48	169.0 ± 3.45	not
Y[Aib]EGTFTSDYSI[Aib]LDKIAQQAFVQWLIAGGPSASHLSTAVLGK([AEEA-AEEA-γGlu-C18 diacid])LS[Aib]ELHKLEDYPRTDVGAESP-NH2 [SEQ ID NO. 57, Y-Aib-E-G-T-F-T-S-D-Y-S-I-Aib-LDKIAQQAFVQWLIAGGPSASHLSTAVLGK*-L-S-Aib-E-L-H-K-L-E-D-Y-P-R-T-D-V-G-A-E-S-P-NH2-acetate salt (wherein K* = Lys(AEEAc-AEEAc-γ-Glu-17-carboxyheptadecanoyl))]	0.044	0.152	0.047	0.724	–	–	–	–
Y[Aib]EGTFTSDYSI[Aib]LDKIAQQAFVQWLIAGGPSKCNTATCATQK([AEEA-AEEA-γGlu-C18 diacid])LAEFLRHSSNNFGPILPPTNVGSHTP-NH2 (disulfide 34-39 (inferred)) [SEQ ID NO. 56, Y-Aib-E-G-T-F-T-S-D-Y-S-I-Aib-LDKIAQQAFVQWLIAGGPSKCNTATCATQK*-LAEFLRHSSNNFGPILPPTNVGSHTP-NH2-acetate salt (wherein K* = Lys(AEEAc-AEEAc-γ-Glu-17-carboxyheptadecanoyl))]	–	–	0.029	1	–	–	–	–
Y[Aib]EGTFTSDYSI[Aib]LDKIAQQAFVQWLIAGGPSSGAPPPSCNTATCVLGRLSQELHRLQTYPRTNTGK([AEEA-AEEA-γGlu-C18 diacid])NTY-NH2 (disulfide 40-45 (inferred)) [SEQ ID NO. 45, Y-Aib-E-G-T-F-T-S-D-Y-S-I-Aib-LDKIAQQAFVQWLIAGGPSSGAPPPSCNTATCVLGRLSQELHRLQTYPRTNTGK*-N-T-Y-NH2-acetate salt (wherein K* is Lys(AEEAc-AEEAc-γ-Glu-17-carboxyheptadecanoyl))]	0.106	0.333	0.041	0.416	–	–	–	–
Y[Aib]EGTFTSDYSI[Aib]LDKIAQQAFVQWLIAGGPSSGAPPPSKCNTATCVLGRLSQELHRLQTYPRTNTK([AEEA-AEEA-γGlu-C18 diacid])SNTY-NH2 (disulfide 41-46 (inferred)) [SEQ ID NO. 52, Y-Aib-E-G-T-F-T-S-D-Y-S-I-Aib-LDKIAQQAFVQWLIAGGPSSGAPPPSKCNTATCVLGRLSQELHRLQTYPRTNTK*-S-N-T-Y-NH2-acetate salt (wherein K* is Lys(AEEAc-AEEAc-γ-Glu-17-carboxyheptadecanoyl))]	0.694	1.24	0.147	0.59	–	–	–	–
Y-Aib-E-G-T-F-T-S-D-Y-S-I-Aib-LDKIAQQAFVQWLIAGGPSSGAPPPSCNTATCVLGRLSQELHRLQTYPRTNTGK*-N-T-Y-NH2-acetate salt (wherein K* = … (also: acetate salt) Y[Aib]EGTFTSDYSI[Aib]LDKIAQQAFVQWLIAGGPSSGAPPPSCNTATCVLGRLSQELHRLQTYPRTNTGK([γGlu-γGlu-C20 diacid])NTY-NH2	0.388	0.218	0.011	0.854	–	–	–	–
